# From patent publication US20090136460A1 (VANDERBILT UNIVERSITY, priority 2007, published 2009)
# Like-named read-outs stand apart in the source and are kept apart here.
# Tests used:
# [1] = system: eEPC adhesion to MCEC-1 cells; test: eEPC adhesion to MCEC-1 cells under static conditions; format: cell-based, mouse
# [2] = system: HMVEC-c cells; test: cAMP accumulation in HMVEC-c cells; format: cell-based, human
# Source text: Primary cultures of human cardiac microvascular endothelial cells (HMVEC-c) were obtained from Cambrex (Walkersville, Md.), and cultured using EGM™-2 MV growth medium (Cambrex). HMVEC-c from passages 2 to 5 were used. Measurement of cAMP accumulation.
# [3] = biological target: T1, A1 adenosine receptor (Mus musculus, UniProt Q60612); details: cited from earlier work; for Ki: read-out: Affinity or potency at A1, mouse (m)
# T1 sequence (Q60612 1-326): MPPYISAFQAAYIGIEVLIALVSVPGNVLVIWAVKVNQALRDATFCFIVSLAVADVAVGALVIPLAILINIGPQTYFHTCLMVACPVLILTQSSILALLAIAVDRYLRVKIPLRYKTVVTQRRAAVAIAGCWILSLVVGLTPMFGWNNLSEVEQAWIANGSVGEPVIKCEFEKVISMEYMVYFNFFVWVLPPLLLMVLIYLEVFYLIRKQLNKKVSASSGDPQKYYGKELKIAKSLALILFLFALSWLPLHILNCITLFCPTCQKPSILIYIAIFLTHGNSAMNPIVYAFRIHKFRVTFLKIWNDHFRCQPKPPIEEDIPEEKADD
# [4] = system: eEPC retention in isolated hearts; test: eEPC retention in isolated mouse hearts (Langendorff perfusion)
# Method: Isolated mouse heart model. Six male C57Bl/6 mice (Jackson Laboratory, Bar Harbor, Me.) at age of 6-8 weeks were used. The study was conducted in accordance with the Guide for the Care and Use of Laboratory Animals as adopted and promulgated by the U.S. National Institutes of Health. Hearts were rapidly removed from mice anesthetized with inhalation of isoflurane. The aorta was cannulated and connected to a Langendorff apparatus. […] After a 30 min stabilization period, hearts were perfused with 1.5 mmol/L FITC-conjugated Helix pomatia lectin (Sigma) for 10 min to label endothelial cells of perfused vessels followed by a 10 min washing period with KH buffer. […] After washing with KH buffer for 10 min to remove unbound eEPCs, hearts were dissected, and placed on a microscopic stage. Retention of eEPCs in hearts was analyzed by taking 10 random images of the left ventricle using epifluorescence microscopy (20× objective). Area of EPC-emitted fluorescence was measured using NIH ImageJ software and normalized to the area of vascular endothelium stained with FITC-lectin.
# [5] = biological target: T2, A1 receptors (Mus musculus, UniProt Q60612); test: Inhibition of forskolin-stimulated cAMP accumulation in mouse eEPCs
# T2 sequence (Q60612 1-326): T1 sequence (Q60612 1-326)
# [6] = biological target: T2, A1 receptors; test: Inhibition of forskolin-induced cAMP accumulation in MCEC-1 cells
# [7] = biological target: A2A adenosine receptor (Mus musculus, UniProt Q60613); details: [9] Kreckler et al. (2006), transfected HEK 293, radioligand [125I]ZM241385, cited from earlier work
# Sequence of A2A adenosine receptor (Q60613 whole entry): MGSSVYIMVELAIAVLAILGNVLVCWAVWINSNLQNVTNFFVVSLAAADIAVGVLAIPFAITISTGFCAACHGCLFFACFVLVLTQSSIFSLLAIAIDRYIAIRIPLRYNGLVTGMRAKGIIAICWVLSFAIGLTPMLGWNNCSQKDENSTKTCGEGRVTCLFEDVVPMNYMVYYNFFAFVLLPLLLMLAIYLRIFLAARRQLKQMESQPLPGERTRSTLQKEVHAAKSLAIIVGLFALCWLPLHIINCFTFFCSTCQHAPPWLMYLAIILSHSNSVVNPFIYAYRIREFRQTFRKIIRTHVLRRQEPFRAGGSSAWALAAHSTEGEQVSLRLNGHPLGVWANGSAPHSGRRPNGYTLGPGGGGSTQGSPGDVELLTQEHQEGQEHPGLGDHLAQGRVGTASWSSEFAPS
# [8] = biological target: T3, A2B adenosine receptor (Mus musculus, UniProt Q60614); details: [9] Kreckler et al. (2006), transfected HEK 293, radioligand [3H]MRS1754, cited from earlier work
# T3 sequence (Q60614 1-332): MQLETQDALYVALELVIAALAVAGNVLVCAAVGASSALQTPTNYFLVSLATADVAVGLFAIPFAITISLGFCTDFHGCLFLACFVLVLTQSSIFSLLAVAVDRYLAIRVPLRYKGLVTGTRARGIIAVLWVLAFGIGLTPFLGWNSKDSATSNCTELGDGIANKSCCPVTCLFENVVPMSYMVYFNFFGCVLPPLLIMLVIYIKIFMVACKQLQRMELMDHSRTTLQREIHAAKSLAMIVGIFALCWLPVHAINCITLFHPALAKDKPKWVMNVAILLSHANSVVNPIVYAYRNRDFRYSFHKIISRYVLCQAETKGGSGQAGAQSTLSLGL
# [9] = system: eEPCs; test: cAMP accumulation in mouse eEPCs (forskolin, NECA)
# [10] = [6] Maemoto et al. (1997), brain cortex, radioligand [3H]DPCPX
# [11] = data from the current study (no reference)
# [12] = [9] Kreckler et al. (2006), transfected HEK 293, radioligand [125I]I-AB-MECA
compound,measurement,setting,value
"CCNC(=O)[C@H]1O[C@@H](n2cnc3c(N)nc(NCCc4ccc(CCC(=O)O)cc4)nc32)[C@H](O)[C@@H]1O [CGS21680, 4-((N-ethyl-5′-carbamoyladenos-2-yl)-aminoethyl)-phenyl-propionic acid]",Effect on eEPC adhesion,[1]; 30 minutes,virtually no effect
same,Effect on cAMP accumulation in HMVEC-c,[2],no significant effect
same,"Affinity or potency at A1, mouse (m), log",[3]; [10],"28,200); −4.85 [6] log mol/L"
same,Effect on eEPC retention,"[4]; 3 nmol/L, compared with 10 μmol/L adenosine",considerably less effect
"OC[C@H]1O[C@@H](n2cnc3c(NC4CCCC4)ncnc32)[C@H](O)[C@@H]1O [CPA, N^6-cyclopentyladenosine]",EC50,[5],1.3 nM
same,"Affinity or potency at A1, mouse (m), current study, log",[5]; [11],−8.9 log mol/L
same,"Affinity or potency (Ki, KD, KB, IC50 or EC50) at A1, mouse (m), current study","[5]; data from the current study (no reference), 95% CI in parentheses",1.2 (0.6-2.4) nmol/L
same,eEPC adhesion,"[1]; 10 nmol/L, 30 minutes, basal 4.5±0.3%",7.4±0.6%
same,Concentrations at which inhibition was reversed,"[6]; MCEC-1, presumably stimulation of A2B receptors",> 100 nmol/L
same,Effect on forskolin-stimulated adenylate cyclase in MCEC-1,"[6]; selective (low nanomolar) concentrations, 1 μmol/L forskolin",inhibited forskolin-stimulated adenylate cyclase
same,"Affinity or potency at A1, mouse (m), log",[3]; [10],−8.5 log mol/L
same,Ki,[3]; [10],3.3 nM
"CCCn1c(=O)c2[nH]c(C3CCCC3)nc2n(CCC)c1=O [DPCPX, 8-cyclopentyl-1,3-dipropylxanthine]",EC50,[5],1.5 nM
same,"Affinity or potency at A1, mouse (m), current study, log",[5]; [11],−8.8 log mol/L
same,"Affinity or potency at A2A, mouse (m), log",[7],−6.2 log mol/L
same,Ki,"[7]; read-out: Affinity or potency at A2A, mouse (m)",598 nM
same,"Affinity or potency at A2B, mouse (m), log",[8],−7.1 log mol/L
same,Ki,"[8]; read-out: Affinity or potency at A2B, mouse (m)",86 nM
same,"Affinity or potency at A1, mouse (m), log",[3]; [10],−9.3 log mol/L
same,"Affinity or potency at A1, mouse (m), log",[3]; [12],−8.8 log mol/L
same,Ki,[3]; [10],0.4 nM
same,Ki,[3]; [12],1.5 nM
"C=C[C@@]1(C)CC(=O)[C@]2(O)[C@@]3(C)[C@@H](O)CCC(C)(C)[C@@H]3[C@H](O)[C@H](OC(C)=O)[C@@]2(C)O1 [Forskolin, forskolin]",EC50,"[9]; Mus musculus, read-out: EC50, increase of cAMP levels in eEPCs",1100 nM
same,cAMP levels in eEPCs,[9]; maximal increase from basal 4.3±0.7,35±2 pmol per well
OC[C@H]1O[C@@H](n2cnc3c(O)ncnc32)[C@H](O)[C@@H]1O [inosine],Effect on eEPC retention,[4]; 100 μmol/L,no effect
Fucoidan,Effect on NECA-dependent stimulation of eEPC adhesion,[1]; 10 μmol/L NECA,inhibited
Pertussis toxin,Effect on ability of CPA to inhibit forskolin-stimulated adenylate cyclase,[5]; eEPCs preincubated with pertussis toxin for 12 hours,completely abrogated
same,Effect on TNF-α-induced eEPC adhesion,[1]; eEPCs preincubated with pertussis toxin 12 hours,no effect
same,Effect on stimulation of adhesion induced by NECA,"[1]; eEPCs preincubated with pertussis toxin 12 hours, 10 μmol/L NECA",significantly attenuated but did not completely block
